Assay results taken from publication PMC9516332 (Frontiers in Oncology, 2022).
Read-outs that look alike come from different tables or passages of the source.

Test system: 134 cancer cell lines
Experiment: Cell viability assay (ATPlite, 72 hours), IC50 on cancer cell line panel

Compound `CCN1C(=O)N(c2c(F)c(OC)cc(OC)c2F)Cc2cnc3[nH]c(CN4CCOCC4)cc3c21` [pemigatinib] has an IC50 (Homo sapiens, LNCaP-Clone-FGC, read-out: IC50 in cell proliferation assay) of 3090 nM, an IC50 (Homo sapiens, LS174T, read-out: IC50 in cell proliferation assay) of 3690 nM and an IC50 (Homo sapiens, LS-411N, read-out: IC50 in cell proliferation assay) of 5900 nM. The IC50 (Homo sapiens, LoVo, read-out: IC50 in cell proliferation assay) was 2700 nM, the IC50 (Homo sapiens, MCF7, read-out: IC50 in cell proliferation assay) was over 31600 nM and the IC50 (Homo sapiens, MDA-MB-231, read-out: IC50 in cell proliferation assay) was 4510 nM. It also gave an IC50 (Homo sapiens, MDA-MB-453, read-out: IC50 in cell proliferation assay) of over 31600 nM, an IC50 (Homo sapiens, MDA-MB-468, read-out: IC50 in cell proliferation assay) of 729 nM and an IC50 (Homo sapiens, MG-63, read-out: IC50 in cell proliferation assay) of 11 nM. The IC50 (Homo sapiens, MIA PaCa-2, read-out: IC50 in cell proliferation assay) was 5730 nM, the IC50 (Homo sapiens, MKN-45, read-out: IC50 in cell proliferation assay) was 2320 nM and the IC50 (Homo sapiens, MOLM-13, read-out: IC50 in cell proliferation assay) was 3540 nM. It also gave an IC50 (Homo sapiens, MOLT-4, read-out: IC50 in cell proliferation assay) of 3590 nM, an IC50 (Homo sapiens, MV4-11, read-out: IC50 in cell proliferation assay) of 2490 nM and an IC50 (Homo sapiens, MeWo, read-out: IC50 in cell proliferation assay) of 2810 nM. The IC50 (Homo sapiens, NCCIT, read-out: IC50 in cell proliferation assay) was 22 nM, the IC50 (Homo sapiens, NCI-H82, read-out: IC50 in cell proliferation assay) was 1400 nM and the IC50 (Homo sapiens, NCI-H460, read-out: IC50 in cell proliferation assay) was 2750 nM. It also gave an IC50 (Homo sapiens, NCI-H661, read-out: IC50 in cell proliferation assay) of 2440 nM, an IC50 (Homo sapiens, NCI-H716, read-out: IC50 in cell proliferation assay) of 2.34 nM and an IC50 (Homo sapiens, NCI-H1650, read-out: IC50 in cell proliferation assay) of 3300 nM. The IC50 (Homo sapiens, NCI-H1975, read-out: IC50 in cell proliferation assay) was 2970 nM, the IC50 (Homo sapiens, NCI-H2228, read-out: IC50 in cell proliferation assay) was 2770 nM and the IC50 (Homo sapiens, OVCAR-3, read-out: IC50 in cell proliferation assay) was 3130 nM. It also gave an IC50 (Homo sapiens, PFSK-1, read-out: IC50 in cell proliferation assay) of 3860 nM, an IC50 (Homo sapiens, RL95-2, read-out: IC50 in cell proliferation assay) of 2380 nM and an IC50 (Homo sapiens, RPMI-7951, read-out: IC50 in cell proliferation assay) of 2980 nM. The IC50 (Homo sapiens, RS4-11, read-out: IC50 in cell proliferation assay) was 1330 nM, the IC50 (Homo sapiens, Rec1, read-out: IC50 in cell proliferation assay) was 3530 nM and the IC50 (Homo sapiens, SHP77, read-out: IC50 in cell proliferation assay) was over 31600 nM. The IC50 (Homo sapiens, SK-BR-3, read-out: IC50 in cell proliferation assay) was 835 nM, the IC50 (Homo sapiens, SK-N-AS, read-out: IC50 in cell proliferation assay) was 2830 nM and the IC50 (Homo sapiens, SK-N-FI, read-out: IC50 in cell proliferation assay) was 3040 nM. For the same compound, the IC50 (Homo sapiens, SK-N-MC, read-out: IC50 in cell proliferation assay) was 2600 nM, the IC50 (Homo sapiens, SK-N-SH, read-out: IC50 in cell proliferation assay) was 2230 nM and the IC50 (Homo sapiens, SNU-5, read-out: IC50 in cell proliferation assay) was 5260 nM. It also gave an IC50 (Homo sapiens, SNU-16, read-out: IC50 in cell proliferation assay) of 2 nM, an IC50 (Homo sapiens, SNU-C2B, read-out: IC50 in cell proliferation assay) of over 31600 nM and an IC50 (Homo sapiens, SU-DHL-1, read-out: IC50 in cell proliferation assay) of 2800 nM. For the same compound, the IC50 (Homo sapiens, SU-DHL-6, read-out: IC50 in cell proliferation assay) was 5120 nM, the IC50 (Homo sapiens, SUP-T1, read-out: IC50 in cell proliferation assay) was 4280 nM and the IC50 (Homo sapiens, SW48, read-out: IC50 in cell proliferation assay) was 8070 nM. The IC50 (Homo sapiens, SW480, read-out: IC50 in cell proliferation assay) was 2960 nM, the IC50 (Homo sapiens, SW626, read-out: IC50 in cell proliferation assay) was 3560 nM and the IC50 (Homo sapiens, SW780, read-out: IC50 in cell proliferation assay) was 8 nM. It also gave an IC50 (Homo sapiens, SW837, read-out: IC50 in cell proliferation assay) of 6230 nM, an IC50 (Homo sapiens, SW872, read-out: IC50 in cell proliferation assay) of 2500 nM and an IC50 (Homo sapiens, SW900, read-out: IC50 in cell proliferation assay) of 1920 nM. For the same compound, the IC50 (Homo sapiens, SW948, read-out: IC50 in cell proliferation assay) was 1930 nM, the IC50 (Homo sapiens, SW982, read-out: IC50 in cell proliferation assay) was 1280 nM and the IC50 (Homo sapiens, SW-620, read-out: IC50 in cell proliferation assay) was 3490 nM. It also gave an IC50 (Homo sapiens, T98G, read-out: IC50 in cell proliferation assay) of 3540 nM, an IC50 (Homo sapiens, TCC-SUP, read-out: IC50 in cell proliferation assay) of 606 nM and an IC50 (Homo sapiens, THP-1, read-out: IC50 in cell proliferation assay) of 4230 nM. For the same compound, the IC50 (Homo sapiens, U2OS, read-out: IC50 in cell proliferation assay) was 2950 nM, the IC50 (Homo sapiens, U-87 MG, read-out: IC50 in cell proliferation assay) was 3120 nM and the IC50 (Homo sapiens, U-118-MG, read-out: IC50 in cell proliferation assay) was 4090 nM. For the same compound, the IC50 (Homo sapiens, UMUC3, read-out: IC50 in cell proliferation assay) was 1600 nM, the IC50 (Hs766T, read-out: IC50 in cell proliferation assay) was 5660 nM and the IC50 (L-82, read-out: IC50 in cell proliferation assay) was 4100 nM. The IC50 (Rh30, read-out: IC50 in cell proliferation assay) was 137 nM.
